Values quoted from earlier work, collected in US10351593B2, “Derivatives of dolastatin 10 and uses thereof” (NewBio Therapeutics, Inc., priority 2015, dated 2019).

Tested on: human carcinoma lines

- IC50: 0.1 to 0.2 µM
Compound: COc1cccc2c1C(=O)c1c(O)c3c(c(O)c1C2=O)C[C@@](O)(C(=O)CO)C[C@@H]3O[C@H]1C[C@H](N)[C@H](O)[C@H](C)O1 [doxorubicin]
